This note sets out measurements from patent US20180000085A1, “USE OF PICOLINAMIDE COMPOUNDS WITH FUNGICIDAL ACTIVITY” (DOW AGROSCIENCES LLC, priority 2014, published 2018).

Assay [1] relates to Puccinia triticina. The experiment in a line: Wheat brown rust (PUCCRT) disease control on wheat seedlings. The settings on record: for PUCCRT 1DP disease control rating, HV activity at 100 ppm / PUCCRT 3DC disease control rating, HV activity at 100 ppm: high volume application; for PUCCRT 1DP disease control rating, HV activity at 100 ppm: 1 day protectant; for PUCCRT 3DC disease control rating, HV activity at 100 ppm: 3 day curative; for HV activity at 100 ppm PUCCRT 1DP (disease control rating) / HV activity at 100 ppm PUCCRT 3DC (disease control rating): HV application; for PUCCRT 1DP disease control rating, HV activity / PUCCRT 3DC disease control rating, HV activity: HV application at 100 ppm. It counts as in vivo. More on the design: key to PUCCRT 3DC, HV activity at 100 ppm (% control rating) / PUCCRT disease control, 3DC / PUCCRT 1DP disease control rating, HV activity / PUCCRT 3DC disease control rating, HV activity / PUCCRT 3DC, LV activity at 125.1 g/H (% Control rating) / PUCCRT 1DP, LV activity at 125.1 g/H (% Control rating) / PUCCRT 3DC disease control rating, LV activity at 125.1 g/H / PUCCRT 1DP disease control rating, LV activity at 125.1 g/H / PUCCRT 3DC disease control rating, HV activity at 100 ppm / PUCCRT 1DP disease control rating, HV activity at 100 ppm / HV activity at 100 ppm PUCCRT 3DC (disease control rating) / LV activity at 125.1 g/H PUCCRT 1DP (disease control rating) / LV activity at 125.1 g/H PUCCRT 3DC (disease control rating): A: > 80; B: ≤ 80; C: Not Tested; D: No Activity Observed in the Reported Assay.

Assay [2] has as its system Zymoseptoria tritici. The experiment in a line: Leaf blotch of wheat (SEPTTR) disease control on wheat seedlings. It counts as in vivo. More on the design: key to SEPTTR 1DP, HV activity at 100 ppm (% control rating) / SEPTTR 3DC, HV activity at 100 ppm (% control rating) / SEPTTR disease control, 1DP / SEPTTR disease control, 3DC / SEPTTR 1DP disease control rating, HV activity / SEPTTR 3DC disease control rating, HV activity / SEPTTR 3DC, LV activity at 125.1 g/H (% Control rating) / SEPTTR 1DP, LV activity at 125.1 g/H (% Control rating) / SEPTTR 1DP disease control rating, LV activity at 125.1 g/H / SEPTTR 3DC disease control rating, LV activity at 125.1 g/H / SEPTTR 3DC disease control rating, HV activity at 100 ppm / SEPTTR 1DP disease control rating, HV activity at 100 ppm / HV activity at 100 ppm SEPTTR 3DC (disease control rating) / HV activity at 100 ppm SEPTTR 1DP (disease control rating) / LV activity at 125.1 g/H SEPTTR 1DP (disease control rating) / LV activity at 125.1 g/H SEPTTR 3DC (disease control rating): A: > 80; B: ≤ 80; C: Not Tested; D: No Activity Observed in the Reported Assay. The settings on record: for SEPTTR 1DP disease control rating, HV activity at 100 ppm / SEPTTR 3DC disease control rating, HV activity at 100 ppm: high volume application; for SEPTTR 1DP disease control rating, HV activity at 100 ppm: 1 day protectant; for SEPTTR 3DC disease control rating, HV activity at 100 ppm: 3 day curative; for HV activity at 100 ppm SEPTTR 1DP (disease control rating) / HV activity at 100 ppm SEPTTR 3DC (disease control rating): HV application; for SEPTTR 1DP disease control rating, HV activity / SEPTTR 3DC disease control rating, HV activity: HV application at 100 ppm.

Where [3] appears, read: 1 Day Protectant, wheat brown rust.
Where [4] appears, read: 3 Day Curative, wheat brown rust.
[5] abbreviates: 1 Day Protectant, wheat leaf blotch.
The mark [6] stands for this setting: 3 Day Curative, wheat leaf blotch.

Regarding `CCCOC(c1ccccc1)C(C)OC(=O)C(C)NC(=O)c1nccc(OC)c1O` (stereo not drawn) [Cmpd 821], in assay [1], the “PUCCRT 1DP disease control rating, HV activity at 100 ppm” value is “A (> 80)” and the “PUCCRT 3DC disease control rating, HV activity at 100 ppm” value was “A (> 80)”. Further, in assay [2], the “SEPTTR 1DP disease control rating, HV activity at 100 ppm” value is given as “B (≤ 80)” and the “SEPTTR 3DC disease control rating, HV activity at 100 ppm” value was “B (≤ 80)”.
Turning to `CC(C)C[C@@H](Oc1cccc(Cl)c1)[C@H](C)OC(=O)[C@H](C)NC(=O)c1ncccc1O` [Cmpd 1037], the “HV activity at 100 ppm PUCCRT 1DP (disease control rating)” value in assay [1] (setting [3]) is on record as “A (> 80)”. Also, in assay [1] (setting [4]), the “HV activity at 100 ppm PUCCRT 3DC (disease control rating)” value was “A (> 80)”. In assay [2] (setting [5]), the “HV activity at 100 ppm SEPTTR 1DP (disease control rating)” value is given as “A (> 80)”. The “HV activity at 100 ppm SEPTTR 3DC (disease control rating)” value in assay [2] (setting [6]) is “B (≤ 80)”.
With `COCC(OC(=O)C(C)NC(=O)c1nccc(OC)c1OCOC(C)=O)C(Oc1ccccc1)C(C)C` (stereo not drawn) [Cmpd 1095], the “LV activity at 125.1 g/H PUCCRT 1DP (disease control rating)” value in assay [1] (low volume application, 125.1 g/H, 1 Day Protectant, wheat brown rust) is “B (≤ 80)”. For the same compound, the “LV activity at 125.1 g/H PUCCRT 3DC (disease control rating)” value in assay [1] (low volume application, 125.1 g/H, 3 Day Curative, wheat brown rust) is “B (≤ 80)”. Further, in assay [2] (low volume application, 125.1 g/H, 1 Day Protectant, wheat leaf blotch), the “LV activity at 125.1 g/H SEPTTR 1DP (disease control rating)” value is “D”. Moreover, the “LV activity at 125.1 g/H SEPTTR 3DC (disease control rating)” value in assay [2] (low volume application, 125.1 g/H, 3 Day Curative, wheat leaf blotch) is “D”.
Consider `COc1ccnc(C(=O)NC(C)C(=O)OC(C(C)C)C(Oc2ccccc2)C(C)C)c1O` (stereo not drawn) [Cmpd 1031], for which the “HV activity at 100 ppm PUCCRT 1DP (disease control rating)” value in assay [1] (setting [3]) is reported as “B (≤ 80)”. For the same compound, the “HV activity at 100 ppm PUCCRT 3DC (disease control rating)” value in assay [1] (setting [4]) is given as “D”. For the same compound, in assay [2] (setting [5]), the “HV activity at 100 ppm SEPTTR 1DP (disease control rating)” value is listed as “B (≤ 80)”. Further, the “HV activity at 100 ppm SEPTTR 3DC (disease control rating)” value in assay [2] (setting [6]) was “D”.
As for `CCC(CC)[C@@H](Oc1ccccc1)[C@H](C)OC(=O)CNC(=O)c1nccc(OC)c1O` [Cmpd 307], the “PUCCRT 1DP disease control rating, HV activity” value in assay [1] (setting [3]) is listed as “A (> 80)”. Further, in assay [1] (setting [4]), the “PUCCRT 3DC disease control rating, HV activity” value was “A (> 80)”. The “SEPTTR 1DP disease control rating, HV activity” value in assay [2] (setting [5]) is on record as “D”. Also, the “SEPTTR 3DC disease control rating, HV activity” value in assay [2] (setting [6]) is “A (> 80)”.
On to `C=CC[C@@H](OCC1CC1)[C@H](C)OC(=O)[C@H](C)NC(=O)c1nccc(OC)c1O` [Cmpd 1024], for which, in assay [1], the “PUCCRT 1DP disease control rating, HV activity at 100 ppm” value is on record as “B (≤ 80)” and the “PUCCRT 3DC disease control rating, HV activity at 100 ppm” value is “A (> 80)”. In assay [2], the “SEPTTR 1DP disease control rating, HV activity at 100 ppm” value is “D” and the “SEPTTR 3DC disease control rating, HV activity at 100 ppm” value is “B (≤ 80)”.
Turning to `COc1ccnc(C(=O)NC(C)C(=O)OC(C)C(Oc2ccccc2)c2ccccc2)c1O` (stereo not drawn) [Cmpd 818], in assay [1], the “PUCCRT 1DP disease control rating, HV activity at 100 ppm” value is “A (> 80)” and the “PUCCRT 3DC disease control rating, HV activity at 100 ppm” value was “D”. Moreover, in assay [2], the “SEPTTR 1DP disease control rating, HV activity at 100 ppm” value was “A (> 80)” and the “SEPTTR 3DC disease control rating, HV activity at 100 ppm” value is reported as “A (> 80)”.
For the compound `CCC(C)C(NC(=O)c1nccc(OC)c1O)C(=O)OC(C)C(Oc1cc(F)ccc1F)C(C)C` (stereo not drawn) [Cmpd 395], in assay [1] (setting [3]), the “PUCCRT 1DP disease control rating, HV activity” value is reported as “B (≤ 80)”. Besides, the “PUCCRT 3DC disease control rating, HV activity” value in assay [1] (setting [4]) is recorded as “D”. Further, the “SEPTTR 1DP disease control rating, HV activity” value in assay [2] (setting [5]) is listed as “B (≤ 80)”. For the same compound, the “SEPTTR 3DC disease control rating, HV activity” value in assay [2] (setting [6]) was “B (≤ 80)”.
Take `CCC(CC)[C@H](Oc1ccc(Cl)cc1Cl)[C@H](C)OC(=O)[C@H](C)NC(=O)c1nccc(OC)c1O` [Cmpd 421]: the “PUCCRT 1DP disease control rating, HV activity” value in assay [1] (setting [3]) is on record as “B (≤ 80)”. In assay [1] (setting [4]), the “PUCCRT 3DC disease control rating, HV activity” value was “D”. Moreover, the “SEPTTR 1DP disease control rating, HV activity” value in assay [2] (setting [5]) was “B (≤ 80)”. Also, in assay [2] (setting [6]), the “SEPTTR 3DC disease control rating, HV activity” value is given as “D”.
